Measurements: patent US8822674B2, “Crystal form of 4-isopropylphenyl glucitol compound and process for production thereof” (Taisho Pharmaceutical Co., Ltd, priority 2010, dated 2014)

Assays:
[1] = Renal concentrations until one week after single oral administration; assay type: in vivo; settings: Sprague-Dawley (SD/IGS), rat, 1 mg/kg po, male Sprague-Dawley rats, kidney
Description: SD/IGS rats at 7 weeks of age (male, non-fasting, Charles River Laboratories Japan Inc.) were orally administered with compound 4, 10 or 33 (1 mg/kg each) or compound 11 (0.3 mg/kg) prepared in a 0.5% aqueous CMC solution. At 24, 72 and 168 hours after drug administration, the rats were exsanguinated via the postcaval vein under ether anesthesia, and their kidneys were excised after they were confirmed to be euthanized. After the tissue surface was washed with physiological saline, each tissue was measured for its weight and homogenized in 4 volumes of purified water under ice cooling. To each homogenate, an acetonitrile/methanol solution containing an internal standard substance was added to remove proteins, and the supernatant was then subjected to LC-MS/MS (Applied Biosystems API3000). Drug-derived ions generated by electrospray ionization in positive ion mode were detected by selective reaction monitoring. The peak area of the resulting extracted ion chromatogram was analyzed by the internal standard method to calculate the drug concentration in the homogenate.
As the internal standard material for Compounds 10 and 33, (1S)-1,5-anhydro-1-[5-(4-ethoxybenzyl)-2-methoxy-4-methylphenyl]-1-thio-D-glucitol,ethyl-D5 was used. As the internal standard materials for Compounds 4 and 11, Compound II and deuterium-labeled Compound II (trishydroxymethyl-D6; —C(CD2OH)3), respectively, were used.

[2] = Renal concentration after repeated oral administration for 3 days; assay type: in vivo, rat; settings: 3 mg/kg for 3 consecutive days, subsequent day 2
Description: At 48 hours after the final drug administration, the rats were exsanguinated via the postcaval vein under isoflurane anesthesia, and their kidneys were excised after they were confirmed to be euthanized. After the tissue surface was washed with physiological saline, each tissue was measured for its weight and homogenized in 4 volumes of purified water under ice cooling. The drug concentration in each homogenate was determined in the same manner as shown in Test Example 3(1) by LC-MS/MS using compound II as an internal standard substance.

[3] = test system: streptozotocin (STZ)-induced diabetic rats; experiment: Oral glucose tolerance test in streptozotocin diabetic model rats; assay type: in vivo, rat
Description: SD/IGS rats at 7 weeks of age (male, Charles River Laboratories Japan Inc.) were fasted for about 16 hours and then injected with 50 mg/kg streptozotocin (STZ) via the caudal vein under ether anesthesia to prepare diabetic model rats. Similarly, another group of SD/IGS rats at 7 weeks of age was injected with 1.25 mmol/L citric acid in physiological saline (1 mL/kg) via the tail vein under ether anesthesia to prepare normal control rats. At one week after injection of STZ or 1.25 mmol/L citric acid in physiological saline, the rats (8 weeks old) were provided for an oral glucose tolerance test. […]
Blood was collected from the caudal veins of the rats under ether anesthesia with the use of a heparin-coated blood collecting tube and centrifuged, whereafter blood plasma was separated. Plasma glucose concentrations were quantified by measurement with a Glucose CII-Test Wako (Wako Pure Chemical Industries, Ltd., Japan). To determine the intensity of hypoglycemic effect, the blood glucose level before drug administration was subtracted from each blood glucose level measured until one hour after oral administration in each drug group, and the resulting values were analyzed by the trapezoidal method to calculate an increment in the area under the curve for glucose (ΔAUC), which was expressed as a decrease relative to ΔAUC of the control group.

[4] = target: T1, human SGLT2 protein modified to have LeuGluSerArgGlyProVal added to the carboxy-terminal final residue (Homo sapiens, UniProt P31639); experiment: Inhibition test for sodium-dependent sugar uptake in CHO-K1 cells stably expressing human SGLT2, Method A; assay type: cell-based; settings: summary of Table 1; method not specified
T1 construct: expressed in transfected cells; host or cells: CHO-K1
T1 sequence (P31639 with tags, fused parts or gaps): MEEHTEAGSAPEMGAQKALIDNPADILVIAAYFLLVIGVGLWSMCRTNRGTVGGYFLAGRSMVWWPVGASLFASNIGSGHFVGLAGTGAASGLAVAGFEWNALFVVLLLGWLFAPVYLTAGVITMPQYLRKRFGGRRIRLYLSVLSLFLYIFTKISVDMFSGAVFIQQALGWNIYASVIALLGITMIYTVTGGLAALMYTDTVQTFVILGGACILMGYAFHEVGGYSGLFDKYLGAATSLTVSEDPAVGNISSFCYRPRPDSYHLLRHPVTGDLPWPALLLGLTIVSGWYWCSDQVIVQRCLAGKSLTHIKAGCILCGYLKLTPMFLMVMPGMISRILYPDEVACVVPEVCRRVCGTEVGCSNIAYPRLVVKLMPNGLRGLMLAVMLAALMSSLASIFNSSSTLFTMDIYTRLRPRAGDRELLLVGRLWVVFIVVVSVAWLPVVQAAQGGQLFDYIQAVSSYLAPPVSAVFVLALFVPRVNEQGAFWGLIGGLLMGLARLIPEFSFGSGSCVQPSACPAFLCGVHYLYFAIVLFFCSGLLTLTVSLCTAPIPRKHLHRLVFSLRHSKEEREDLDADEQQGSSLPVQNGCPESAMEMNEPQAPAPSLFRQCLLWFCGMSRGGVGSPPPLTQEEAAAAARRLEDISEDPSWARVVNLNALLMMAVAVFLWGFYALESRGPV
Description: Method A (described in WO2007/136116): A plasmid vector expressing human SGLT2 protein modified to have LeuGluSerArgGlyProVal added to the carboxy-terminal final residue was transfected into CHO-K1 cells using lipofectamine 2000 (Invitrogen). The cells were cultured in the presence of 500 μg/mL hygromycin B to select resistant strains, followed by screening in the system shown below using sugar uptake capacity as an indicator to obtain SGLT2-expressing cells.
(§1) The stably expressing cells prepared above were used in the following test.
(§2) Pretreatment buffer (140 mM choline chloride, 2 mM KCl, 1 mM CaCl2, 1 mM MgCl2, 10 mM HEPES/5 mM Tris, pH 7.4) was added in a volume of 200 μL to the cells stably expressing SGLT1 or 2 mL for Method A and 200 μL for Method B to the cells stably expressing SGLT2, followed by incubation for 20 minutes. […] A liquid scintillator (Perkin Elmer) was added and mixed well with each sample, followed by measurement of radioactivity using a β-ray analyzer. […]

human SGLT1 = target: T2, human SGLT1 (Homo sapiens, UniProt P13866); experiment: Inhibition test for sodium-dependent sugar uptake in CHO-K1 cells stably expressing human SGLT1; assay type: cell-based; settings: summary of Table 1
T2 construct: expressed in transfected cells; host or cells: CHO-K1
T2 sequence (P13866 1-664): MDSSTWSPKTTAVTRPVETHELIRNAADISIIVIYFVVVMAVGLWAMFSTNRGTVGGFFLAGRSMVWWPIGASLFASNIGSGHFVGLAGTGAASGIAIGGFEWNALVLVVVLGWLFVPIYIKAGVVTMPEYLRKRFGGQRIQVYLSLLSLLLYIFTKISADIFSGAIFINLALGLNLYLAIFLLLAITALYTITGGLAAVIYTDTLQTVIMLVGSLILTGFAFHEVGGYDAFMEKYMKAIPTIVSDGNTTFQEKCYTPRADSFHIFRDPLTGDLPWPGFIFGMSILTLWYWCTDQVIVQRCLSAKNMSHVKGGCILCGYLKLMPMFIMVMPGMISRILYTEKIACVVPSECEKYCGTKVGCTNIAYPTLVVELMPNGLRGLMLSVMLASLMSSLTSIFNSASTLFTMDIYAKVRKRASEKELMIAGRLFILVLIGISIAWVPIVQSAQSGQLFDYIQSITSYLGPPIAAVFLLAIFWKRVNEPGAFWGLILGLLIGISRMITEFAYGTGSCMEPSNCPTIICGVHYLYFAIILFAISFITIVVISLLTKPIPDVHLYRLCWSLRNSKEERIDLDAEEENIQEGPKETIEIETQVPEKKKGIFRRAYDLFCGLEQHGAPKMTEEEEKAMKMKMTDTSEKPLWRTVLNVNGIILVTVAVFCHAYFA
Description: A plasmid vector expressing human SGLT1 protein was transfected into CHO-K1 cells using lipofectamine 2000 (Invitrogen). The cells were cultured in the presence of 500 μg/mL geneticin to select resistant strains, followed by screening in the system shown below using sugar uptake capacity as an indicator to obtain SGLT1-expressing cells.
as §1
as §2, with “minutes. The pretreatment buffer was removed and replaced by uptake buffer containing a test compound (1 mM methyl α-D-glucopyranoside (containing [^14C]methyl α-D-glucopyranoside), 140 mM NaCl, 2 mM KCl, 1 mM CaCl2, 1 mM MgCl2, 10 mM HEPES/5 mM Tris, pH 7.4) in a volume of 75 μL for SGLT1 and SGLT2 in Method B or 200 μL for SGLT2 in Method A. Uptake reaction was performed at 37° C. for 30 minutes (SGLT1) or 60 minutes (SGLT2).” for “minutes.”

| Compound | concentration at 1 day ([1]; 1 day, read-out: Concentration of compounds in kidney after single oral administration, After 1 day) | concentration at 3 days ([1]; 3 days, read-out: Concentration of compounds in kidney after single oral administration, After 3 days) | concentration at 7 days ([1]; 7 days, read-out: Concentration of compounds in kidney after single oral administration, After 7 days) | remaining in the kidney after repeated administration (in words) [2] | STZ rats OGTT % inhibition ΔAUC0−1 h (mg/dl) @1 mg/kg/po ([3]; STZ-induced diabetic rats, oral dose 1 mg/kg, glucose 2 g/kg, versus vehicle control) | hypoglycemic action in the glucose tolerance test (in words) ([3]; oral administration of 1 mg/kg) | SGLT2 inhibiting activity (in words) [4] | SGLT1 inhibiting activity (in words) (human SGLT1) |
| --- | --- | --- | --- | --- | --- | --- | --- | --- |
| Cc1cc(O)c([C@@H]2O[C@H](CO)[C@@H](O)[C@H](O)[C@H]2O)cc1Cc1ccc(CCCC(=O)NC(C)(C)C(N)=O)cc1 [compound 4] | 68.4 ± 7.49 ng/g | 85.5 ± 23.1 ng/g | 76.3 ± 15.5 ng/g |  |  |  |  |  |
| COc1cc(C(C)C)c(Cc2ccc(/C=C/C(C)(C)C(=O)NC(C)(C)C(=O)NCCN(C)C)cc2)cc1[C@@H]1O[C@H](CO)[C@@H](O)[C@H](O)[C@H]1O [compound (A), (1S)-1,5-anhydro-1-[5-(4-{(1E)-4-[(1-{[2-(dimethylamino)ethyl]amino}-2-methyl-1-oxopropan-2-yl)amino]-3,3-dimethyl-4-oxobut-1-en-1-yl}benzyl)-2-methoxy-4-(propan-2-yl)phenyl]-D-glucitol] |  |  |  | did not remain in the kidney | 65% | potent | some, although weak | strong |
